Reference: patent US20120064008A1, “COMPOSITIONS FOR THE TREATMENT OF METASTATIC CANCER AND METHODS OF USE THEREOF” (priority 2009, published 2012)
Read-outs that look alike come from different tables or passages of the source.

Columns and labels:
[1] = system: AT6.1 Dunning rat prostate carcinoma; assay: Survival in intravenous AT6.1 Dunning rat prostate carcinoma lung metastasis model; type: in vivo, nu/nu mice; settings: 10 mg/kg three times a week
Procedure: Many anti-tumor drugs are tested only for their ability to prevent primary tumor growth or to prevent the dissemination of metastatic cells. To accomplish this, the drug is usually administered shortly after the primary tumor is established. […] The benzimidazoles described herein were evaluated in an experimental metastases model in the lungs of nude mice following tail-vein injection of Dunning rat AT6.1 prostate carcinoma. […] In order to achieve greater bioavailability, we first solubilized benzimidazoles in DNTC formulation and then diluted with saline prior to injection.
Inbred male nu/nu mice age 6-8 weeks were obtained from Massachusetts General Hospital (Boston, Mass.). The mice were virus antibody free, age and weight matched for experimental use and fed with a balanced rodent diet ad libitum. AT6.1 Dunning rat prostate cells were maintained as described above. 1×10^4 log-phase cells were injected via tail vein in 0.1 mL Hanks solution. Vehicle or drug treatment was started on day 5 post inoculation and given three times a week (Monday, Wednesday and Friday) via intraperitoneal injection in 0.5 mL volume. Benzimidazole drugs were prepared in the combination carrier [DMSO (12.5%), NMP (37.5%), TWEEN®-80 (25%) and CrEL (25%)] and diluted in saline. Vehicle control was prepared by diluting the combination carrier with saline.
During the course of treatment, the mice were monitored for toxicity by measuring body weight. […] Animals were euthanized with CO2 and tissues were collected for further analysis. The animals and experiments used in these studies were approved by the institutional animal care committee according to Children's Hospital Boston ARCH guidelines.
To distinguish differences in survival between these groups, the percent increase in life span (ILS %), defined as the percent increase in the mean time to death of drug-treated animals over the corresponding time to death for vehicle-treated mice, was calculated.

PC3 cells [2] = assay: % apoptotic cells, PC3; type: cell-based, human; settings: 100 nM
PC3 cells [3] = assay: Normalized mitotic index, PC3; type: cell-based, human; settings: 100 nM
DU145 cells [4] = assay: % apoptotic cells, DU145; type: cell-based, human; settings: 100 nM
PC-3MLN4 cells = assay: Normalized mitotic index (histone H3 phospho-Serine-28), PC-3MLN4; type: cell-based; settings: Homo sapiens, at 1 μM; normalized against vehicle-treated cells; read-out: Normalized mitotic index PC-3MLN4
Text: (§1) The mitotic index for each agent was normalized against those obtained from vehicle-treated cells, and compared with the activity of paclitaxel, a known inducer of mitotic arrest.

[5] = system: paclitaxel-resistant PC3-TR prostate cancer cells; assay: Cyquant cell viability assay, PC3-TR; type: cell-based, human; settings: 72 hours
Procedure: (§2) The cytotoxic effects of paclitaxel, fenbendazole, and albendazole were compared in paclitaxel-resistant PC3-TR and DU145-TR prostate cancer cells with their paclitaxel-sensitive counterparts, PC3 and DU145 cells. Cells were treated for 72 hours with vehicle, paclitaxel, fenbendazole or albendazole in various doses. Cell viability was measured using Cyquant assay, and percent control was calculated by dividing the fluorescent reading from drug-treated cells with those from vehicle-treated cells, indicating percentage of cell survival.

PC-3TxR cells = assay: Subcutaneous PC-3TxR tumors in nude mice; type: in vivo; settings: 10 mg/kg three times a week for 3 weeks
Procedure: PC-3TxR cells were inoculated subcutaneously in the flanks of the nude mice. When the tumors reached approximately 100 mm^3 in size, the mice were treated with vehicle, paclitaxel (10 mg/kg), fenbendazole (100 mg/kg) or albendazole (100 mg/kg) three times a week for 3 weeks. These benzimidazoles were prepared in DNTC and diluted with saline prior to injection.
PC-3TxR cells were inoculated subcutaneously in the flanks of the nude mice. When the tumors reached approximately 100 mm3 in size, the mice were treated with vehicle, paclitaxel (10 mg/kg), fenbendazole (100 mg/kg) or albendazole (100 mg/kg) three times a week for 3 weeks. These benzimidazoles were prepared in DNTC and diluted with saline prior to injection.

AT6.1 cells = assay: Normalized mitotic index (histone H3 phospho-Serine-28), AT6.1; type: cell-based; settings: Rattus norvegicus, at 1 μM; normalized against vehicle-treated cells; read-out: Normalized mitotic index AT6.1
Text: as §1

PC3-TR cells [6] = assay: Normalized mitotic index, PC3-TR; type: cell-based, human; settings: 100 nM
[7] = Combination with paclitaxel, Cyquant cell growth inhibition, CompuSyn median-dose effect analysis; type: cell-based; settings: alone or in combination, read-out: Dose Tax
Procedure: Cell growth inhibition assays were performed using Cyquant reagent as described above. Drug interactions were quantitated by median-dose effect analysis and combination index values as well as dose reduction index were derived using CompuSyn software (ComboSyn, Inc.), as described previously in the literature. CI values of <1, =1, and >1 indicate synergism, additivity and antagonism between the drugs, respectively.
All benzimidazole drugs were prepared using the combination carrier and diluted with culture medium prior to treatment.

DU145-TR cells [8] = assay: Normalized mitotic index, DU145-TR; type: cell-based, human; settings: 100 nM
PC3-TR cells [9] = assay: % apoptotic cells, PC3-TR; type: cell-based, human; settings: 100 nM
DU145 cells [10] = assay: Normalized mitotic index, DU145; type: cell-based, human; settings: 100 nM
[11] = system: paclitaxel-resistant DU145-TR prostate cancer cells; assay: Cyquant cell viability assay, DU145-TR; type: cell-based, human; settings: 72 hours
Procedure: as §2

DU145-TR cells [12] = assay: % apoptotic cells, DU145-TR; type: cell-based, human; settings: 100 nM
PC-3M cells = assay: Normalized mitotic index (histone H3 phospho-Serine-28), PC-3M; type: cell-based; settings: Homo sapiens, at 1 μM, normalized against vehicle-treated cells, read-out: Normalized mitotic index PC-3M
Text: as §1

Question: Which “percent increase in life span (ILS %)” value [1] does the source give for `CC(=O)O[C@H]1C(=O)[C@@]2(C)[C@H]([C@H](OC(=O)c3ccccc3)[C@]3(O)C[C@H](OC(=O)[C@H](O)[C@@H](NC(=O)c4ccccc4)c4ccccc4)C(C)=C1C3(C)C)[C@]1(OC(C)=O)CO[C@@H]1C[C@@H]2O` [Paclitaxel] here?
Answer: 30.2%

Question: And the “% Apoptotic cells (72 hours) PC3” value (PC3 cells [2])?
Answer: 16.4%

Question: And the “Normalized mitotic index (6 hours) PC3” value (PC3 cells [3])?
Answer: 1.32

Question: And the “% Apoptotic cells (72 hours) DU145” value (DU145 cells [4])?
Answer: 37.3%

Question: What about the fold induction at 1 µM (PC-3MLN4 cells) of the same compound?
Answer: 2.34

Question: And the “cytotoxic effect against PC3-TR (PC-3TxR)” value [5]?
Answer: refractory

Question: What about the “cytotoxic effect against PC3-TR (PC-3TxR)” value ([5]; listed as taxol) of the same compound?
Answer: less effective

Question: What about the “growth of PC-3TxR tumors compared to the vehicle treated group” value (PC-3TxR cells) of the same compound?
Answer: significantly greater

Question: And the fold induction at 1 µM (AT6.1 cells)?
Answer: 2.1

Question: What about the “Normalized mitotic index (6 hours) PC3-TR” value (PC3-TR cells [6]) of the same compound?
Answer: 1.56

Question: What about the EC50 ([7]; Fa 0.50, listed as Tax) of the same compound?
Answer: 937 nM

Question: And the EC50 ([7]; Fa 0.50)?
Answer: 936 nM

Question: What about the EC50 ([7]; Fa 0.60) of the same compound?
Answer: 1392 nM

Question: And the “Normalized mitotic index (6 hours) DU145-TR” value (DU145-TR cells [8])?
Answer: 0.86

Question: And the “% Apoptotic cells (72 hours) PC3-TR” value (PC3-TR cells [9])?
Answer: 8.9%

Question: What about the “Normalized mitotic index (6 hours) DU145” value (DU145 cells [10]) of the same compound?
Answer: 3.52

Question: And the “cytotoxic effect against DU145-TR (DU-145TxR)” value [11]?
Answer: refractory

Question: And the “cytotoxic effect against DU145-TR (DU-145TxR)” value ([11]; listed as taxol)?
Answer: less effective

Question: What about the “% Apoptotic cells (72 hours) DU145-TR” value (DU145-TR cells [12]) of the same compound?
Answer: 11.5%

Question: And the fold induction at 1 µM (PC-3M cells)?
Answer: 2.43
